Read-outs that look alike come from different tables or passages of the source.
Legend:
[1] = molecular target: human phosphodiesterase-5 (PDE5) (Homo sapiens (Human), UniProt O76074); test: PDE5 assay: formation of 5'GMP from cGMP, PDE5 enzyme isolated from human platelets
Procedure: Purpose: Evaluation of the effects of compounds of the present invention on the activity of the human phosphodiesterase-5 quantified by measuring the formation of 5′GMP from cGMP using PDE5 enzyme isolated from human platelets.
Thereafter, the reaction is initiated by addition of the enzyme and the mixture is incubated for 60 min at 22° C.
For basal control measurements, the enzyme is omitted from the reaction mixture. Following incubation SPA beads are added. After 20 min at 22° C. under shaking, the amount of [3H]5′GMP is quantified with a scintillation counter (Topcount, Packard).

[2] = system: human pulmonary artery smooth muscle cells (hPASMC); test: Measurements of cGMP in human pulmonary artery smooth muscle cells (hPASMC); format: cell-based; settings: incubation 15 or 30 min
Procedure: Human Pulmonary Artery Smooth Muscle Cells (hPASMC) were purchased from Clonetics™ Lonza (Lonza, reference number CC-2581) and cultured in Clonetics™ smooth muscle growth medium (Clonetics™ SmGM™-2 with BulletKit™ growth factor supplements (Lonza, reference number CC-3182) at 37° C. in 500 CO2. Culture medium was replaced each 48 hours. Cells were grown in 75 cm^2 culture plates. 48 h before the experiments, cells were trypsinized (Trypsin kit One ReagentPack™ (CC-5034), Lonza) and plated in 96 well plates precoated with collagen I at 10000 cells per well. 24 h before the experiments culture medium was replaced by serum-reduced (0.5% FBS) medium.
Measurements of intracellular cGMP were performed using the Amersham cGMP EIA System (GE Healthcare, RPN226) following the instructions of the manufacturer. The assay has a sensitivity of 2 fmol cGMP per well. Briefly, incubations were terminated by adding Amersham's lysis buffer 1 and cells left for 10 min under agitation to ensure complete lysis. cGMP in samples was then acetylated using triethylamine and acetic anhydride and determined by a competitive ELISA. The ELISA is based on the competition between acetylated cGMP in cell culture lysates and a peroxidase-labelled cGMP conjugate for limited binding sites on a cGMP specific antiserum immobilized on pre-coated 96 well MTP. cGMP was determined based on a standard curve. […]

[3] = system: phenylephrine-precontracted rat aortic rings; test: Isometric tension studies on rat aortic rings (relaxation of phenylephrine-precontracted rings); settings: for potency and efficacy compared to intact endothelium, in words: L-NAME (FIG. 2C) or mechanical removal of endothelium (FIG. 2D); for EC50 / Emax: Rattus norvegicus
Procedure: After 1 week of acclimatization, rats were anesthetized. Appropriate depth of anesthesia was determined by the absence of the leg flexor response and the eyelid reflex. Then, the thorax was quickly opened by a midline incision, and the rat was sacrificed by cutting the heart and exsanguination.
Indomethacin (1 μM) was added to the saline solution.
Eligible rings were then washed several times to restore tension to the baseline level.
In some experiments, the entire length of the thoracic aorta was functionally denuded of the endothelial layer by gently scraping the luminal surface with a 1.5 mm glass rod. […] Rings were then washed several times to restore tension to the baseline level.
Indomethacin (1 μM) was added to the saline solution. […] Only vessels with at least 60% relaxation to 1 μM ACh from the tension with 300 nM were eligible.
The preparations were allowed to equilibrate for 60 min in Krebs with high glucose (25 mM) before contraction to a new single concentration of PE (300 nM).
Finally, sodium nitroprusside (0.1 mM) was added, in order to obtain maximum relaxation of arterial rings.
The amount of relaxation (percent values as means±SEM) was quantified as percent relaxation from the tension (plateau) achieved with phenylephrine.
Data are presented as mean±SEM. Statistical analysis of results has been performed by analysis of variance (ANOVA) either parametric or non-parametric (Kruskal-Wallis), followed by Bonferroni test or Dunn tests as appropriate (GraphPad Software Inc, San Diego, CA, USA). Significance was accepted when P<0.05. Non-linear regression was conducted with GraphPad Software).

With `CCCc1c(/C=N/O)c(C)c2c(=O)[nH]c(-c3cc(S(=O)(=O)N4CCN(C)CC4)ccc3OCC)nn12` [Compound 1a, (E)-2-(2-ethoxy-5-((4-methylpiperazin-1-yl)sulfonyl)phenyl)-5-methyl-4-oxo-7-propyl-3,4-dihydropyrrolo[2,1-f][1,2,4]triazine-6-carbaldehyde oxime] the IC50 ([1]; human platelet PDE5) was 0.25 nM.
Compound `CCCc1c(/C=N/O)c(C)c2c(=O)[nH]c(-c3cc(S(=O)(=O)N4CCN(CCCO)CC4)ccc3OCC)nn12` [Compound 1an, (E)-2-(2-ethoxy-5-(4-(3-hydroxypropyl)piperazin-1-ylsulfonyl)phenyl)-5-methyl-4-oxo-7-propyl-3,4-dihydropyrrolo[1,2-f][1,2,4]triazine-6-carbaldehyde oxime] has an IC50 ([1]; human platelet PDE5) of 0.42 nM.
Compound `CCCOc1ccc(S(=O)(=O)N2CCN(C)CC2)cc1-c1nn2c(CCC)c(/C=N/OC)c(C)c2c(=O)[nH]1` [Compound 1o, (E)-5-methyl-2-(5-((4-methylpiperazin-1-yl)sulfonyl)-2-propoxyphenyl)-4-oxo-7-propyl-3,4-dihydropyrrolo[2,1-f][1,2,4]triazine-6-carbaldehyde O-methyl oxime] has an IC50 ([1]; human platelet PDE5) of 0.53 nM.
`CCCOc1ccc(S(=O)(=O)N2CCC(CCO)CC2)cc1-c1nn2c(CCC)c(/C=N/O)c(C)c2c(=O)[nH]1` [Compound 1r, (E)-2-(5-((4-(2-hydroxyethyl)piperidin-1-yl)sulfonyl)-2-propoxyphenyl)-5-methyl-4-oxo-7-propyl-3,4-dihydropyrrolo[2,1-f][1,2,4]triazine-6-carbaldehyde oxime] was tested, and the “cGMP in hPASMC, activity compared to sildenafil” value [2] was “significantly higher activity as compared to the reference inhibitor sildenafil”, the “potency and efficacy compared to intact endothelium, in words” value [3] was “largely impaired” and the EC50 ([3]; High Glucose (25 mM)) was 2.79 nM. For the same compound, the Emax ([3]; High Glucose (25 mM)) was 51%, the EC50 ([3]; Intact Endothelium (E+)) was 0.0074 nM and the Emax ([3]; Intact Endothelium (E+)) was 91.9%. For the same compound, the EC50 ([3]; L-NAME (100 μM)) was 0.935 nM, the Emax ([3]; L-NAME (100 μM)) was 60.4% and the EC50 ([3]; Without Endothelium) was 5.94 nM. The Emax ([3]; Without Endothelium) was 39.8%, the “relaxation of rat aortic rings, comparison in words” value (“relaxation of rat aortic rings” for short) ([3]; intact endothelium (FIG. 2A)) was “more potent and effective than Sildenafil” and the IC50 [1] was 0.16 nM.
`CCCOc1ccc(S(=O)(=O)N2CCC(CCO[N+](=O)[O-])CC2)cc1-c1nn2c(CCC)c(/C=N/O)c(C)c2c(=O)[nH]1` [Compound 1v, (E)-2-(1-((3-(6-((hydroxyimino)methyl)-5-methyl-4-oxo-7-propyl-3,4-dihydropyrrolo[2,1-f][1,2,4]triazin-2-yl)-4-propoxyphenyl)sulfonyl)piperidin-4-yl)ethyl nitrate] was tested, and the “cGMP in hPASMC, activity compared to sildenafil” value [2] was “significantly higher activity as compared to the reference inhibitor sildenafil”, the “potency and efficacy compared to intact endothelium, in words” value [3] was “superior” and the “relaxation of rat aortic rings” value ([3]; intact endothelium (FIG. 2A)) was “more potent and effective than Sildenafil”. For the same compound, the “relaxation of rat aortic rings” value ([3]; pre-exposed to high glucose 25 mM (FIG. 2B)) was “clearly more potent and efficacious than 1r”.
For “(E)-2-(2-ethoxy-5-(4-(2-hydroxyethyl)piperidin-1-ylsulfonyl)phenyl)-5-methyl-4-oxo-7-propyl-3,4-dihydropyrrolo[1,2-f][1,2,4]triazine-6-carbaldehyde oxime [Compound 1al]”, the “% inhibition at 5.0E−09M” value ([1]; 5.0E−09M, percent inhibition of control enzyme activity) was 84.9% and the IC50 ([1]; human platelet PDE5) was 0.48 nM.
“(E)-2-(4-(4-ethoxy-3-(6-((methoxyimino)methyl)-5-methyl-4-oxo-7-propyl-3,4-dihydropyrrolo [1,2-f][1,2,4]triazin-2-yl)phenylsulfonyl)piperazin-1-yl)ethyl nitrate [Compound 1ai]” was tested, and the “% inhibition at 5.0E−09M” value [1] was 0.3%.

Reference: patent publication US12351585B2, “2-phenyl-3,4-dihydropyrrolo[2,1-f] [1,2,4]triazinone derivatives as phosphodiesterase inhibitors and uses thereof” (TOPADUR PHARMA AG, priority 2015, dated 2025)
